Measurements from patent US20230212202A1, “TREATMENT OF MGMT DEFICIENT CANCER WITH 2-FLUOROETHYL-SUBSTITUTED NITROSOUREAS AND OTHER COMPOUNDS” (YALE UNIVERSITY, priority 2021, published 2023).

What was measured:
[1] = tested on: LN229 MGMT+/- cells with shRNA targeting MSH6, MLH1, PMS2, or MSH3; assay: Short-term viability assay, MMR shRNA lines; assay type: cell-based, human; conditions: shMSH6, shMLH1, shPMS2, shMSH3
[2] = Maximum tolerated dose study in healthy mice; assay type: in vivo, mouse
Description: Healthy mice were treated with escalating doses of KL-50 (4a) (0, 25, 50, 100, and 200 mg/kg × 1 dose), and monitored over time for changes in both weights and hematologic profiles. Mice in the higher dosage groups (100 or 200 mg/kg) experienced a greater than 10% weight loss after treatment administration, which regressed to baseline at the end of one week (FIG. 6B). […] As the main dose limiting systemic toxicity of TMZ (1a) is myelosuppression, complete blood counts were measured for all mice on day 0 before treatment and subsequently on day 7 after drug administration.

[3] = tested on: LN229 MGMT-/MMR- flank tumors; assay: Xenograft flank tumor model; assay type: in vivo, mouse
[4] = tested on: LN229 MGMT-/MMR+ and MGMT-/MSH6- flank tumors; assay: Flank tumor third study: large tumors; assay type: in vivo, mouse; conditions: 25 mg/kg PO MWF × 3 weeks, ~350-400 mm^3 tumors
Description: The third study involved MGMT-/MMR+ and MGMT-/MSH6- (shMSH6) LN229 cells. Mice tumors were allowed to grow to a larger average starting volume of ~350 mm^3 before they were randomized and administered either KL-50 (4a; 25 mg/kg MWF × 3 weeks) or vehicle (10% cyclodextrin) by oral gavage. Caliper measurements were obtained during the dosing period and at least two weeks following treatment. Mice were euthanized if body weight loss exceeded 20% or if tumor volume increased to greater than 3000 mm^3.

[5] = tested on: LN229 MGMT+/-, MMR+/- cells; assay: Cell cycle analysis; assay type: cell-based, human; conditions: 20 µM
Description: Cell Cycle Analysis. Cell cycle analysis was performed using integrated Hoechst nucleic acid dye fluorescence intensity as previously described (51). Briefly, integrated Hoechst fluorescence intensity was log2 transformed and histograms from DMSO-treated cells were used to identify the centers of the 2 N and 4 N DNA peaks. These values were used to normalize the 2 N DNA peak to 1 and the 4 N DNA peak to 2. Cells were then classified by normalized log2 DNA content as G1 (0.75-1.25), S (1.25-1.75), or G2 (1.75-2.5) phase cells. The percentage of cells within each phase of the cell cycle was determined for each treatment condition. The three sets of Hoechst-stained cells corresponding to the three separate DNA foci stains were treated as three independent analyses.

LN229 MGMT-/MMR+ cells = assay: IR alkaline comet assay; assay type: cell-based, human

Description for BJ fibroblast cells: Short-term Cell Viability Assay. Cells were seeded in 96-well plates at 1000 or 2000 cells/well and allowed to adhere at 23° C. for 60 min and then incubated overnight at 37° C. […] Cells were imaged on a Cytation 3 imaging reader (BioTek) and quantified using CellProfiler software.

## NC(=O)c1ncn2c(=O)n(CCF)nnc12 [KL-50]
[1]
  activity in MGMT- LN229 cells lacking other MMR proteins: confirmed
[2]; 0, 25, 50, 100, 200 mg/kg × 1 dose
  tolerability: well-tolerated
[2]; 200 mg/kg
  mice observably ill warranting euthanasia: Two of three mice
[2]; 100 or 200 mg/kg, regressed to baseline at one week
  weight loss after treatment administration: greater than 10%
[2]; day 7, all cohorts
  complete blood counts: within normal physiological ranges
[3]; 5 mg/kg MWF × 3 weeks, P.O.
  tumor growth: potently suppressed tumor growth
[3]; Kaplan-Meier
  increase in median OS vs TMZ: greater than 5 week
[3]; Kaplan-Meier, 5 mg/kg MWF × 3 weeks
  median OS: greater than 15 weeks
[4]
  growth of large tumors: potently suppressed the growth
[5]; MGMT+/MMR+ cells
  G2 arrest: moderate G2 arrest
[5]; MGMT-/MMR+ cells
  G2 arrest: increasing G2 arrest on progression from 24 to 48 h
[5]; MGMT-/MMR- cells
  G2 arrest: attenuated G2 arrest
BJ fibroblast cells
  cytotoxicity in normal human fibroblast cells: no increase in toxicity
LN229 MGMT-/MMR+ cells; 200 µM, 24 h, 10 Gy
  IR-induced comet tail (ICL detection): reduced the %DNA in the tail to levels similar to those seen for 0.1 µM MMC
LN229 MGMT-/MMR+ cells; TMZ, KL-50 200 µM, MMC 0.1 or 50 µM
  comet tailing in the absence of IR: induced tailing
